According to the NIST ThermoML archive (doi:10.1021/je034197x):
± gives the expanded uncertainty stated by the source.

Settings: Liquid, Closed cell (Static) method

Row | Compound | vapor or sublimation pressure (298.15 K) | vapor or sublimation pressure (303.15 K) | vapor or sublimation pressure (308.15 K) | vapor or sublimation pressure (313.15 K) | vapor or sublimation pressure (318.15 K) | vapor or sublimation pressure (323.15 K) | vapor or sublimation pressure (328.15 K) | vapor or sublimation pressure (333.15 K) | vapor or sublimation pressure (338.15 K) | vapor or sublimation pressure (343.15 K) | vapor or sublimation pressure (348.15 K) | vapor or sublimation pressure (353.15 K) | vapor or sublimation pressure (358.15 K) | vapor or sublimation pressure (363.15 K)
1 | CCC(C)O (stereo not drawn) [butan-2-ol] | 2.44 ± 0.2 kPa | 3.373 ± 0.2 kPa | 4.588 ± 0.2 kPa | 6.234 ± 0.2 kPa | 8.252 ± 0.2 kPa | 10.86 ± 0.2 kPa | 14.13 ± 0.2 kPa | 18.34 ± 0.2 kPa | 23.49 ± 0.2 kPa | 29.71 ± 0.21 kPa | 37.2 ± 0.21 kPa | 46.36 ± 0.21 kPa | 57.16 ± 0.22 kPa | 70.24 ± 0.23 kPa
2 | CC(C)O [propan-2-ol] | 5.799 ± 0.2 kPa | 7.859 ± 0.2 kPa | 10.52 ± 0.2 kPa | 13.94 ± 0.2 kPa | 18.24 ± 0.2 kPa | 23.64 ± 0.2 kPa | 30.35 ± 0.21 kPa | 38.59 ± 0.21 kPa | 48.66 ± 0.21 kPa | 60.66 ± 0.22 kPa | 75.22 ± 0.23 kPa | 92.44 ± 0.24 kPa |  | 
3 | CCCO [propan-1-ol] | 2.88 ± 0.013 kPa | 3.998 ± 0.015 kPa | 5.374 ± 0.018 kPa | 7.197 ± 0.023 kPa | 9.568 ± 0.028 kPa | 12.42 ± 0.035 kPa | 16.14 ± 0.044 kPa | 20.72 ± 0.055 kPa | 26.41 ± 0.069 kPa | 33.23 ± 0.086 kPa | 41.63 ± 0.11 kPa | 51.67 ± 0.13 kPa | 63.69 ± 0.16 kPa | 77.81 ± 0.2 kPa
4 | CCCCO [butan-1-ol] | 1.003 ± 0.2 kPa | 1.317 ± 0.2 kPa | 1.841 ± 0.2 kPa | 2.544 ± 0.2 kPa | 3.453 ± 0.2 kPa | 4.648 ± 0.2 kPa | 6.171 ± 0.2 kPa | 8.103 ± 0.2 kPa | 10.56 ± 0.2 kPa | 13.6 ± 0.2 kPa | 17.37 ± 0.2 kPa | 21.98 ± 0.2 kPa | 27.65 ± 0.2 kPa | 34.41 ± 0.21 kPa

Further lines, results first:

Row | vapor or sublimation pressure (298.15 K) | vapor or sublimation pressure (303.15 K) | vapor or sublimation pressure (308.15 K) | vapor or sublimation pressure (313.15 K) | vapor or sublimation pressure (318.15 K) | vapor or sublimation pressure (323.15 K) | vapor or sublimation pressure (328.15 K) | vapor or sublimation pressure (333.15 K) | vapor or sublimation pressure (338.15 K) | vapor or sublimation pressure (343.15 K) | vapor or sublimation pressure (348.15 K) | vapor or sublimation pressure (353.15 K) | vapor or sublimation pressure (358.15 K) | vapor or sublimation pressure (363.15 K) | Compound
5 | 7.916 ± 0.024 kPa | 10.54 ± 0.031 kPa | 13.84 ± 0.039 kPa | 17.98 ± 0.049 kPa | 23.17 ± 0.062 kPa | 29.58 ± 0.077 kPa | 37.46 ± 0.097 kPa | 46.95 ± 0.12 kPa | 58.58 ± 0.15 kPa | 72.24 ± 0.18 kPa | 88.66 ± 0.22 kPa |  |  |  | CCO [ethanol]
6 | 16.95 ± 0.046 kPa | 21.88 ± 0.058 kPa | 27.98 ± 0.073 kPa | 35.51 ± 0.092 kPa | 44.59 ± 0.11 kPa | 55.65 ± 0.14 kPa | 68.94 ± 0.17 kPa | 84.62 ± 0.21 kPa |  |  |  |  |  |  | CO [methanol]
